Reference: ChEMBL document CHEMBL3868599, “Strategy for designing selective α-l-rhamnosidase inhibitors: Synthesis and biological evaluation of l-DMDP cyclic isothioureas” (Bioorg Med Chem, 2017)
pIC50: −log10 of the molar value.

Assays:
Beta-galactosidase = biological target: T1, Beta-galactosidase (Bos taurus, UniProt Q58D55); test: Inhibition of bovine liver beta-galactosidase using p-nitrophenyl-glycoside as substrate by spectrophotometric method
T1 sequence (Q58D55 whole entry): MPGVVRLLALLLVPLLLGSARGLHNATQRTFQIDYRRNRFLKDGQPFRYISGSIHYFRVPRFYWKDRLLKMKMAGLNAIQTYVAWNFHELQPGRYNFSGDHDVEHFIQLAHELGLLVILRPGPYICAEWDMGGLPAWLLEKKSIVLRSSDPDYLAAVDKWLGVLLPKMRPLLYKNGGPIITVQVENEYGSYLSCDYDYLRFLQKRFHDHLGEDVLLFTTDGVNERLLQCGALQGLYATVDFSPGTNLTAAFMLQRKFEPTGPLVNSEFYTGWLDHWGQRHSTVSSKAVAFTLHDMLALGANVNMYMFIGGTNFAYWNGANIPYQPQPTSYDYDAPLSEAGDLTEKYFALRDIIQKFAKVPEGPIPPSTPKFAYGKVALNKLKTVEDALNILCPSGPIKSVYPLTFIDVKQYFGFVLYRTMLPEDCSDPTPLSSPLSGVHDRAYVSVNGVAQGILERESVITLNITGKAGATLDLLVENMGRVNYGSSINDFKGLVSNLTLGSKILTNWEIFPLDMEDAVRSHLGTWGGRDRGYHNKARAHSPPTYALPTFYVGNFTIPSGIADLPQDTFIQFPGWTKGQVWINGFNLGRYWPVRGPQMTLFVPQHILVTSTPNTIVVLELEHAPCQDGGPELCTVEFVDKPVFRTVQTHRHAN

Rattus norvegicus [1] = species: Rattus norvegicus; test: Inhibition of rat intestinal maltase assessed as D-glucose level at 1000 uM using maltose as substrate measured after 10 to 30 mins
Penicillium decumbens [2] = test: Inhibition of Penicillium decumbens alpha-L-rhamnosidase at 1000 uM using p-nitrophenyl-glycoside as substrate by spectrophotometric method
Bos taurus = species: Bos taurus; test: Inhibition of bovine liver beta-glucosidase at 1000 uM using p-nitrophenyl-glycoside as substrate by spectrophotometric method
[3] = biological target: T2, Tissue alpha-L-fucosidase (Bos taurus) (UniProt Q2KIM0); test: Inhibition of bovine kidney alpha-L-fucosidase at 1000 uM using p-nitrophenyl-glycoside as substrate by spectrophotometric method
T2 sequence (whole entry): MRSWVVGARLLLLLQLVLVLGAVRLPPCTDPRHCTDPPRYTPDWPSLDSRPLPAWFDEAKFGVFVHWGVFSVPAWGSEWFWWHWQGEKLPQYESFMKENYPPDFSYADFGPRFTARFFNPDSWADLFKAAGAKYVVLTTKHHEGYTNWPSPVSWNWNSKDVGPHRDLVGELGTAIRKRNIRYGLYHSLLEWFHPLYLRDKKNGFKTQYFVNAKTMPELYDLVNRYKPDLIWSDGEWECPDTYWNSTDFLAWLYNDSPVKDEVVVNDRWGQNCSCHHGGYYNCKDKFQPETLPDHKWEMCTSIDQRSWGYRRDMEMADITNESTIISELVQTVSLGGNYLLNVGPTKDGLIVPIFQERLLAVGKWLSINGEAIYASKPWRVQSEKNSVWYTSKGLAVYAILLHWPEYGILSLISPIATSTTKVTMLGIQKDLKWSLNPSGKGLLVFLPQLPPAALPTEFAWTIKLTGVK

Homo sapiens = species: Homo sapiens; test: Inhibition of human lysosomal beta-glucosidase at 1000 uM using 4-methylumbelliferyl-beta-D-glucopyranoside as substrate preincubated for 45 mins followed by substrate addition measured after 30 mins by fluorescence spectrophotometric method
Prunus dulcis [4] = test: Inhibition of almond beta-glucosidase at 1000 uM using p-nitrophenyl-glycoside as substrate by spectrophotometric method
Aspergillus niger [5] = test: Inhibition of Aspergillus niger amyloglucosidase assessed as D-glucose level at 1000 uM using maltose as substrate measured after 10 to 30 mins
[6] = biological target: T3, Uncharacterized protein (Sus scrofa) (UniProt I3LIR5); test: Inhibition of porcine kidney trehalase assessed as D-glucose level at 1000 uM using maltose as substrate measured after 10 to 30 mins
T3 sequence (whole entry): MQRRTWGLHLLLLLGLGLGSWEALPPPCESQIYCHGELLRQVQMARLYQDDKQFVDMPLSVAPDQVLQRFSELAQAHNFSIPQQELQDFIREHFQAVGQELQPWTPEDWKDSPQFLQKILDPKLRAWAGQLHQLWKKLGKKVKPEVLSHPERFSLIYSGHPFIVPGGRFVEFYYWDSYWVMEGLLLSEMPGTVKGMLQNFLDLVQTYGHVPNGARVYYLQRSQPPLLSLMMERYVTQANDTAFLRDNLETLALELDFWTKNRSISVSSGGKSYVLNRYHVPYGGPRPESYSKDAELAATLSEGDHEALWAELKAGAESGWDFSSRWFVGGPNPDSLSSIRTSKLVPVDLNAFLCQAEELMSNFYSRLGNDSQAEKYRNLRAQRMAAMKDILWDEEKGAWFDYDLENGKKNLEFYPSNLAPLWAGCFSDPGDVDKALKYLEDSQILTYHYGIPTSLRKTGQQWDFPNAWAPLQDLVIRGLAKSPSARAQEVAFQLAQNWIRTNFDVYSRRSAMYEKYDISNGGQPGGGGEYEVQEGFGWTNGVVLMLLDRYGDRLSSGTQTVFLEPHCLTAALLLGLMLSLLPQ

Escherichia coli [7] = test: Inhibition of Escherichia coli beta-glucuronidase at 1000 uM using p-nitrophenyl-glycoside as substrate by spectrophotometric method
Oryza sativa [8] = test: Inhibition of rice alpha-glucosidase at 1000 uM using p-nitrophenyl-glycoside as substrate by spectrophotometric method
[9] = biological target: T2, Tissue alpha-L-fucosidase (Bos taurus); test: Inhibition of bovine kidney alpha-L-fucosidase at 100 uM using p-nitrophenyl-glycoside as substrate by spectrophotometric method
Prunus dulcis [10] = test: Inhibition of almond beta-glucosidase at 100 uM using p-nitrophenyl-glycoside as substrate by spectrophotometric method
[11] = Inhibition of human lysosomal beta-glucosidase using 4-methylumbelliferyl-beta-D-glucopyranoside as substrate preincubated for 45 mins followed by substrate addition measured after 30 mins by fluorescence spectrophotometric method
Oryza sativa [12] = test: Inhibition of rice alpha-glucosidase at 100 uM using p-nitrophenyl-glycoside as substrate by spectrophotometric method
Rattus norvegicus [13] = species: Rattus norvegicus; test: Inhibition of rat intestinal maltase assessed as D-glucose level at 100 uM using maltose as substrate measured after 10 to 30 mins
Penicillium decumbens [14] = test: Inhibition of Penicillium decumbens alpha-L-rhamnosidase at 100 uM using p-nitrophenyl-glycoside as substrate by spectrophotometric method
Aspergillus niger [15] = test: Inhibition of Aspergillus niger amyloglucosidase assessed as D-glucose level at 100 uM using maltose as substrate measured after 10 to 30 mins
[16] = Inhibition of bovine liver beta-glucosidase using p-nitrophenyl-glycoside as substrate by spectrophotometric method; design: species or system Bos taurus
Escherichia coli [17] = test: Inhibition of Escherichia coli beta-glucuronidase at 100 uM using p-nitrophenyl-glycoside as substrate by spectrophotometric method
[18] = biological target: T3, Uncharacterized protein (Sus scrofa); test: Inhibition of porcine kidney trehalase assessed as D-glucose level at 100 uM using maltose as substrate measured after 10 to 30 mins
[19] = Inhibition of Penicillium decumbens alpha-L-rhamnosidase
[20] = Inhibition of Penicillium decumbens alpha-L-rhamnosidase using p-nitrophenyl-glycoside as substrate by spectrophotometric method
[21] = biological target: T4, Beta-galactosidase (Bos taurus) (UniProt Q58D55); test: Inhibition of bovine liver beta-galactosidase at 1000 uM using p-nitrophenyl-glycoside as substrate by spectrophotometric method
T4 sequence (whole entry): T1 sequence (Q58D55 whole entry)

Question: With `CCCCCCNC(=S)N1[C@H](CO)[C@@H](O)[C@H](O)[C@H]1CO` as the compound, how does the pIC50 (Beta-galactosidase) read?
Answer: Its pIC50 is 3.00.

Question: And the inhibition (Rattus norvegicus [1])?
Answer: The inhibition was less than 50%.

Question: What about the inhibition (Penicillium decumbens [2]) of the same compound?
Answer: The inhibition was less than 50%.

Question: And the inhibition (Bos taurus)?
Answer: Its inhibition is less than 50%.

Question: And the inhibition [3]?
Answer: The inhibition was less than 50%.

Question: What about the inhibition (Homo sapiens) of the same compound?
Answer: The inhibition was less than 50%.

Question: What about the inhibition (Prunus dulcis [4]) of the same compound?
Answer: Its inhibition is less than 50%.

Question: What about the inhibition (Aspergillus niger [5]) of the same compound?
Answer: The inhibition was less than 50%.

Question: And the inhibition [6]?
Answer: The inhibition was less than 50%.

Question: What about the inhibition (Escherichia coli [7]) of the same compound?
Answer: Its inhibition is less than 50%.

Question: And the inhibition (Oryza sativa [8])?
Answer: The inhibition was less than 50%.

Question: With `CCCCCCCCCCCCNC(=S)N1[C@@H](CO)[C@H](O)[C@@H](O)[C@@H]1CO` as the compound, how does the pIC50 (Beta-galactosidase) read?
Answer: The pIC50 was 4.52.

Question: What about the inhibition [9] of the same compound?
Answer: Its inhibition is less than 50%.

Question: What about the inhibition (Prunus dulcis [10]) of the same compound?
Answer: The inhibition was less than 50%.

Question: And the pIC50 [11]?
Answer: The pIC50 was 4.14.

Question: And the inhibition (Oryza sativa [12])?
Answer: The inhibition was less than 50%.

Question: What about the inhibition (Rattus norvegicus [13]) of the same compound?
Answer: Its inhibition is less than 50%.

Question: What about the inhibition (Penicillium decumbens [14]) of the same compound?
Answer: Its inhibition is less than 50%.

Question: What about the inhibition (Aspergillus niger [15]) of the same compound?
Answer: Its inhibition is less than 50%.

Question: And the pIC50 [16]?
Answer: Its pIC50 is 4.44.

Question: What about the inhibition (Escherichia coli [17]) of the same compound?
Answer: The inhibition was less than 50%.

Question: And the inhibition [18]?
Answer: Its inhibition is less than 50%.

Question: With `C[C@H]1N[C@@H](CO)[C@H](O)[C@H](O)[C@H]1O` as the compound, how does the pIC50 [19] read?
Answer: Its pIC50 is 3.07.

Question: With `OC[C@H]1[C@H](O)[C@@H](O)[C@@H]2CS/C(=N/Cc3ccc(Cl)cc3)N12` as the compound, how does the pIC50 [20] read?
Answer: Its pIC50 is 6.05.

Question: Which inhibition (Penicillium decumbens [2]) does the source give for `OC[C@H]1[C@@H](O)[C@H](O)[C@@H]2CS/C(=N/Cc3ccc(Cl)c(Cl)c3)N12` here?
Answer: The inhibition was 9.3%.

Question: What does the source list for `CCCC/N=C1/SC[C@@H]2[C@@H](O)[C@H](O)[C@@H](CO)N12`?
Answer: inhibition [21]: < 50%; inhibition (Rattus norvegicus [1]): < 50%; inhibition (Penicillium decumbens [2]): < 50%; inhibition (Bos taurus): < 50%; pIC50 [11]: 3.27; inhibition [3]: < 50%; inhibition (Prunus dulcis [4]): < 50%; inhibition (Aspergillus niger [5]): < 50%; inhibition [6]: < 50%; inhibition (Escherichia coli [7]): < 50%; inhibition (Oryza sativa [8]): < 50%

Question: Which results are given for `CCCCCCCCCCCC/N=C1/SC[C@@H]2[C@@H](O)[C@H](O)[C@@H](CO)N12`?
Answer: pIC50 (Beta-galactosidase): 4.49; inhibition [9]: < 50%; inhibition (Prunus dulcis [10]): < 50%; pIC50 [11]: 6.00; inhibition (Oryza sativa [12]): < 50%; inhibition (Rattus norvegicus [13]): < 50%; inhibition (Aspergillus niger [15]): < 50%; pIC50 [20]: 4.17; pIC50 [16]: 4.20; inhibition (Escherichia coli [17]): < 50%; inhibition [18]: < 50%

Question: With `Cc1ccc(C/N=C2/SC[C@H]3[C@H](O)[C@@H](O)[C@H](CO)N23)cc1` as the compound, how does the pIC50 [20] read?
Answer: The pIC50 was 5.92.

Question: With `OC[C@H]1[C@@H](O)[C@@H](O)CN1Cc1ccccc1` as the compound, how does the pIC50 [19] read?
Answer: The pIC50 was 4.68.

Question: With `OC[C@H](O)[C@@H]1NC[C@H](O)[C@@H]1O` as the compound, how does the pIC50 [19] read?
Answer: The pIC50 was 4.28.

Question: With `COc1ccc(C/N=C2/SC[C@H]3[C@H](O)[C@@H](O)[C@H](CO)N23)cc1` as the compound, how does the pIC50 [20] read?
Answer: Its pIC50 is 5.80.

Question: With `OC[C@H]1[C@H](O)[C@@H](O)[C@@H]2CS/C(=N/Cc3ccc(Cl)cc3Cl)N12` as the compound, how does the pIC50 [20] read?
Answer: The pIC50 was 6.10.

Question: With `CCCCCC/N=C1/SC[C@@H]2[C@@H](O)[C@H](O)[C@@H](CO)N12` as the compound, how does the inhibition [21] read?
Answer: The inhibition was less than 50%.

Question: What about the inhibition (Rattus norvegicus [1]) of the same compound?
Answer: The inhibition was less than 50%.

Question: What about the inhibition (Bos taurus) of the same compound?
Answer: The inhibition was less than 50%.

Question: What about the pIC50 [11] of the same compound?
Answer: The pIC50 was 4.80.

Question: What about the inhibition [3] of the same compound?
Answer: The inhibition was less than 50%.

Question: What about the inhibition (Prunus dulcis [4]) of the same compound?
Answer: Its inhibition is less than 50%.

Question: And the inhibition (Aspergillus niger [5])?
Answer: The inhibition was less than 50%.

Question: And the pIC50 [20]?
Answer: Its pIC50 is 3.31.

Question: And the inhibition [6]?
Answer: Its inhibition is less than 50%.

Question: What about the inhibition (Escherichia coli [7]) of the same compound?
Answer: The inhibition was less than 50%.

Question: And the inhibition (Oryza sativa [8])?
Answer: The inhibition was less than 50%.
